AC50, IC50 and EC50 data for 32 compounds are collected here from ChEMBL document CHEMBL1201862, “PubChem BioAssay data set” (2004).

Activity calls are given as the source filed them. Non-standard residues stand in square brackets, D forms with d. Residues, ends and D or L forms follow the SMILES beside them. ξ: configuration not given here. *: point of attachment. ξF = NC(Cc1ccccc1)C(=O)O; Cbz = O=C(OCc1ccccc1)*

The nature of assay [1]: P. falciparum Dd2 growth inhibitors, dose response, SYBR Green, cherry-picked samples (AID 1159567). The format is functional, cell-based.
In another assay the test system is H9c2. Nature of the assay: cells. The format is functional, cell-based. Particulars: Rattus norvegicus, H9c2, Myocardium.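 Note: confirmatory concentration-response retest of ultra-high-throughput screening hits for modulation of myocardial damage; cell death induced by hydrogen peroxide oxidative stress; compound pretreatment for 60 min then peroxide exposure for 2 h; potency is for protecting the cells against peroxide damage rather than for killing them.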
Assay [2] addresses T1, Corticotropin-releasing factor receptor 2/Corticotropin-releasing factor-binding protein (Homo sapiens, UniProt P24387+Q13324).
T1 sequence (Q13324 whole entry): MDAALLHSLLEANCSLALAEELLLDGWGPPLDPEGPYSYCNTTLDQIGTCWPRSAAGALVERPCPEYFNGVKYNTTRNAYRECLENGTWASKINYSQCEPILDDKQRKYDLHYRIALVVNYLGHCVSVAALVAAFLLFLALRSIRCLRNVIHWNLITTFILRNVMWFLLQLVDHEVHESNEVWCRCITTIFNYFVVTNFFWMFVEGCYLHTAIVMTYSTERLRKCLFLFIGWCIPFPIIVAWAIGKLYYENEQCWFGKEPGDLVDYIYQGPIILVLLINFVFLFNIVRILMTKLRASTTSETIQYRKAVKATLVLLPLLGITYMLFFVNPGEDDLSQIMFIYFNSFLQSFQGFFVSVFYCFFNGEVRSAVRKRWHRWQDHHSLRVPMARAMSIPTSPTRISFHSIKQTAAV
T1 sequence (P24387 whole entry): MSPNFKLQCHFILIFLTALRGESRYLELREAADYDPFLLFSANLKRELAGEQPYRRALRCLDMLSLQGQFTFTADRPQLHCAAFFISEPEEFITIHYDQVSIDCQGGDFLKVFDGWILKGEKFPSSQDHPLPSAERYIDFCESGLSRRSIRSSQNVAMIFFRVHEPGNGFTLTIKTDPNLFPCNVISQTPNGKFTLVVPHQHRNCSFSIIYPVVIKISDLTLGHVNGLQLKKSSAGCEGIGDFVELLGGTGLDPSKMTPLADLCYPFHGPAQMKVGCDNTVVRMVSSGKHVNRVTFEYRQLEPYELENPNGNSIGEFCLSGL
Nature of the assay: activators of CRF receptor 2 with binding protein – uHTS hits, confirmation (AID 602473). Particulars: read-out: EC50_Mean. Format: functional.

For assay [3], the target named is T2, Ubiquitin-conjugating enzyme E2 N (Homo sapiens, UniProt P61088).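 Note: Dose-response confirmation in a TR-FRET assay detecting UBC13-driven polyubiquitin chain formation, inhibition measured.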
T2 sequence (P61088 whole entry): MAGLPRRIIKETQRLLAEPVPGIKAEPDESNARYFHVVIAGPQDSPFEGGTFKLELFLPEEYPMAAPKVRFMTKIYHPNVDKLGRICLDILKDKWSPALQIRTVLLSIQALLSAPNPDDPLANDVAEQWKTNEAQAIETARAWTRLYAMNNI
Format: functional.

A short description of assay [4]: Luminescence Cell-Based Dose Confirmation HTS to Identify Inhibitors of Platelet Dense Granule Release. [Related pubchem assays: 1663 (Primary HTS), 1678 (Summary of Project)]. Format: functional.
The target of assay [5] is Luciferin 4-monooxygenase (Photinus pyralis, UniProt P08659). Nature of the assay: inhibition of purified Photinus pyralis luciferase – biochemical, luminescence, dose response (AID 1891).
Chain of Luciferin 4-monooxygenase (P08659 whole entry): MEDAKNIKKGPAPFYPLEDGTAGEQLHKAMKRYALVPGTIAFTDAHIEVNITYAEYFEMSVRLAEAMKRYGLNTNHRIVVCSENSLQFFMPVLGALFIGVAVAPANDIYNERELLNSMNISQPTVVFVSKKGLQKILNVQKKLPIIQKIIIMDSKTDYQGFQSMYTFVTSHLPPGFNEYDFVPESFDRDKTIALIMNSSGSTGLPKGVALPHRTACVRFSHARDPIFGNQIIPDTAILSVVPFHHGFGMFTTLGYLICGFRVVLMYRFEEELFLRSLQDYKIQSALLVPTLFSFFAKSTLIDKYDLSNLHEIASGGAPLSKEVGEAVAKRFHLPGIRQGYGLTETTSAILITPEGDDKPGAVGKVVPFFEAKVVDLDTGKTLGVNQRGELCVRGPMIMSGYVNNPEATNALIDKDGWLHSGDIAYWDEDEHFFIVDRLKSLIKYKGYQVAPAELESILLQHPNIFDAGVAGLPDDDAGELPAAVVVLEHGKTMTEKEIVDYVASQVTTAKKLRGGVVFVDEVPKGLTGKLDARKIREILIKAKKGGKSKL
The next assay has as its target Paired box protein Pax-8 (Homo sapiens, UniProt Q06710). Nature of the assay: PAX8 transcriptional activity inhibition in RMG-I – RMG-I cells, luciferase, cherry-pick, dose response (AID 687027).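 Note: luciferase reporter driven by Pax8 target thyroperoxidase promoter measured by SteadyGlo luminescence.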 The format is functional, cell-based.
The nature of assay [6]: cells. The format is functional, cell-based.
Assay [7] is described as follows: cells. The format is functional, cell-based. This is another data set of the same source.
In the next assay the target is T3, Protein skinhead-1 (Caenorhabditis elegans, UniProt P34707).
T3 sequence (P34707 whole entry): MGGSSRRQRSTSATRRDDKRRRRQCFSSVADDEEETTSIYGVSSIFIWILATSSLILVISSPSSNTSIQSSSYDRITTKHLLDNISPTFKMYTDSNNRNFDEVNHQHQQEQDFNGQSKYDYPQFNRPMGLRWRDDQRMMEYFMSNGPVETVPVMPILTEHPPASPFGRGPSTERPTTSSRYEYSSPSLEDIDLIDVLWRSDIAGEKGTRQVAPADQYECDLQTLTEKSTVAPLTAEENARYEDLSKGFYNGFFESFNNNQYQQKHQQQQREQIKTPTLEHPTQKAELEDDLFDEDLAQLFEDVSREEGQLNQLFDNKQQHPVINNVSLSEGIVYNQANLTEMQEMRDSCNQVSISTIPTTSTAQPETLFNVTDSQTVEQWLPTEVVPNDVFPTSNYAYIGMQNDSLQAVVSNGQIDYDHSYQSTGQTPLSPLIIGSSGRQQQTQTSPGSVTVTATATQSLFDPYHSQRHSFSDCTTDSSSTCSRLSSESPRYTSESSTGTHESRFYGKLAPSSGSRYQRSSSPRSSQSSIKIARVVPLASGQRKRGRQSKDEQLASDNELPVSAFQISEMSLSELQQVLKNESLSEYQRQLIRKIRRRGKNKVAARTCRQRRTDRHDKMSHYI
The format is functional.

Assay [8] deals with T4, Heat shock factor protein 1 (Mus musculus, UniProt P38532).
T4 sequence (P38532 whole entry): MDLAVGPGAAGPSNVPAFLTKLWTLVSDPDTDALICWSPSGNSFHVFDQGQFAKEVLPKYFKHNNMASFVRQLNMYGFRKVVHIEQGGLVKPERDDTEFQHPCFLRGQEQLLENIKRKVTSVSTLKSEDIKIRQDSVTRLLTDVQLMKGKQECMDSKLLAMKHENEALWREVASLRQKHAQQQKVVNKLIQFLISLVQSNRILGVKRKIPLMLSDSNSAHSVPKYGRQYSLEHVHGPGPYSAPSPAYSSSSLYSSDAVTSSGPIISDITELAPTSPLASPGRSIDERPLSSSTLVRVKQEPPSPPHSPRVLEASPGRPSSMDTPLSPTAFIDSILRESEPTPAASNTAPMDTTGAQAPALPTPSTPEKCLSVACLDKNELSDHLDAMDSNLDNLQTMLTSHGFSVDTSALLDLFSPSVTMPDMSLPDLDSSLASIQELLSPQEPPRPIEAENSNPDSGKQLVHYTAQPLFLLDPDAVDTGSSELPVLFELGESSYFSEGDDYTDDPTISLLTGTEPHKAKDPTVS
Nature of the assay: decrease of HSF1-responsive luciferase luminescence – cell-based, NIH3T3, dose retest, confirmation (AID 2382).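 Note: NIH3T3 fibroblasts with HSF1-driven luciferase reporter stressed by proteasome inhibitor MG132; luminescence from HSF1-driven luciferase expression after 8 hours of MG132 stress.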 The format is functional.

For assay [9], the target named is T5, Rac GTPase-activating protein 1 (Homo sapiens, UniProt Q9H0H5).
T5 sequence (Q9H0H5 whole entry): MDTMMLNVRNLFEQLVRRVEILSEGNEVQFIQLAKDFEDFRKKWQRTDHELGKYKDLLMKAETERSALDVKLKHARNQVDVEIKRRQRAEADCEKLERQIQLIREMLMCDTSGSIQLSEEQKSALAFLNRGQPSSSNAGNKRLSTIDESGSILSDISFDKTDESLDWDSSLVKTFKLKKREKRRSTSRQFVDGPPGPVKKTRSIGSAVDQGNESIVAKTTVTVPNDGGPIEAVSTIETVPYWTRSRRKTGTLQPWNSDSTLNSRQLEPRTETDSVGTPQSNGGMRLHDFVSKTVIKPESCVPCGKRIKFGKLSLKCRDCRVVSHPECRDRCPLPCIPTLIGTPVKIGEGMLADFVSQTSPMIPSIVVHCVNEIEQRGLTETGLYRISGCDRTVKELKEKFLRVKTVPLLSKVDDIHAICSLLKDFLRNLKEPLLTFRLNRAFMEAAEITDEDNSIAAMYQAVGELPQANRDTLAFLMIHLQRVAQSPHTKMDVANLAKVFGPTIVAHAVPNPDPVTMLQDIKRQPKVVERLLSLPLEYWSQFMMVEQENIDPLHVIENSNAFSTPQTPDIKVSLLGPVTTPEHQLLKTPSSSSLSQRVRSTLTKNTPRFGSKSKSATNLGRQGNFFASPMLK
Nature of the assay: blockers of MgcRacGAP-driven Rac1 GTP hydrolysis – biochemical, ADP Hunter fluorescence, primary and confirmatory, confirmation (AID 624330). Format: functional.

Chain of Paired box protein Pax-8 (Q06710 whole entry): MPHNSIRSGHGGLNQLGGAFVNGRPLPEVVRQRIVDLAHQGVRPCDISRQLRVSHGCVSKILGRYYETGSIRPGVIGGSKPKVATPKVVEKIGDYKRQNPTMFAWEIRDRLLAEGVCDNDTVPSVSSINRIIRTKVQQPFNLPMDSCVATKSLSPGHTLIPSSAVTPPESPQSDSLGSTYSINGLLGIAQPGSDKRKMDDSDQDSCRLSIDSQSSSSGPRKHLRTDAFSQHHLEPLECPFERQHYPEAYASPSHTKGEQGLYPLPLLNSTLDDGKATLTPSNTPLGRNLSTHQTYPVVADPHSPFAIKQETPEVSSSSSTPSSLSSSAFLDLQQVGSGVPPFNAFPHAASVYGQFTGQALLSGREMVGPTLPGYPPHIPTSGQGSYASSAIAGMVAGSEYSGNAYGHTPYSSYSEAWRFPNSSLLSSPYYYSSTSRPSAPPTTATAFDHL

For the compound `COc1ccc2c3c([nH]c2c1)[C@H](CO)N(Cc1ccccc1F)CC31CN(C(=O)C2CCCC2)C1`, the AC50 in assay [1] was 9.56 µM (active).

As for `CCCCn1/c(=N/C(=O)c2cccnc2)c(C#N)cc2c(=O)n3cccc(C)c3nc21`, the IC50 in the assay on H9c2 was 26.2 µM (active). In addition, the EC50 in [2] is > 53 µM (inactive). Regarding `COC(=O)Cc1cc(O)nc(Nc2nc3ccccc3o2)n1`, in assay [3], the IC50 is > 20 µM (inactive). For the compound `Cc1cccc(NC(=O)c2ccc(NCCO)c([N+](=O)[O-])c2)n1`, the figures for the EC50 in assay [4] and in assay [5] were 25.5 µM (active) and > 112 µM (not active), respectively. For the compound `CCOC(=O)C(Cc1ccccc1)NC(=O)CNC(=O)CNC(=O)OCc1ccccc1` (stereo not drawn) (Cbz-Gly-Gly-[ξF]-OEt), the EC50 in assay [4] was 25 µM (active); in assay [5], > 112 µM (not active). Consider `CN1CCCCN2[C@@H](CO)[C@@H](c3ccc(-c4cccnc4)cc3)[C@@H]2C1`, for which, in [1], the AC50 is 6.76 µM (active). As to `CCOC(=O)C1CCN(c2ncnc3cc(OC)c(OC)cc23)CC1`, the EC50 in [4] was 9.14 µM (active); in assay [5] it was > 112 µM (not active). As to `C[C@H]1CN([C@@H](C)CO)C(=O)Cc2cc(NC(=O)Nc3ccc(C(F)(F)F)cc3)ccc2O[C@H]1CN(C)C(=O)NC1CCCCC1`, at Paired box protein Pax-8, the AC50 was 10.2 µM (active).

As for `COc1cc2c(cc1OC)C(c1ccccc1)N(S(C)(=O)=O)CC2` (stereo not given), the EC50 in the assay “cells [6]” and in the assay “cells [7]” was > 350 µM (not active) in each case. Regarding `CN(CC(=O)Nc1ccccc1Oc1ccccc1)Cc1ccccc1F`, the EC50 in the assay “cells [6]” and in “cells [7]” was > 350 µM (not active) in each case. With `Cc1cccc(C)c1NC(=O)C1CCCN1S(=O)(=O)c1ccc(-c2ccc(O)nn2)s1` (stereo not given), the values for the EC50 in assay [4] and in assay [5] were 47.1 µM (active) and > 112 µM (not active), respectively. As for `COc1ccc(CN2CCNC(=O)C2CC(=O)NC2CCCC2)c(OC)c1` (stereo not given), the EC50 in the assay “cells [6]” and in “cells [7]” was > 350 µM (not active) throughout. For the compound `CO[C@@H]1CN(C)C(=O)c2ccc(NC(=O)C3CCC3)cc2OC[C@@H](C)N(CC2CCCCC2)C[C@H]1C`, in assay [1], the AC50 was 4.4 µM (active). On to `CC(C)(C)OC(=O)NCC12C=CC(O1)C1C(=O)N(Cc3ccccc3)C(=O)C12` (stereo not given), for which the values for the IC50 with H9c2 and at Protein skinhead-1 were > 79 µM (inactive) and > 100 µM (inactive), respectively.

Consider `CCOC(=O)C1(Cc2cccc(OC)c2)CCN(CC=C(C)C)CC1`, for which the EC50 in assay [4] is 21.4 µM (active); in assay [5] it was > 112 µM (not active). For the compound `Cc1ccc2cc(CN(Cc3ccco3)C(=O)C3CCCCC3)c(O)nc2c1C`, the EC50 in assay [4] and in assay [5] was > 112 µM (not active) each time. On to `CC(C)N(c1ccccc1)c1ncnc(NCCC(=O)O)c1[N+](=O)[O-]`, for which the EC50 in “cells [6]” and in the assay “cells [7]” was > 350 µM (not active) in each case.

For the compound `CCc1nnc(NC(=O)[C@@H](NC(=O)c2ccc(OC)cc2)C(C)C)s1`, the EC50 in [4] and in assay [5] was > 112 µM (not active) each time. In the case of `Cc1cccc(-c2noc(CN(C)S(=O)(=O)c3cc(Cl)ccc3Cl)n2)c1`, the EC50 in the assay “cells [6]” and in the assay “cells [7]” was > 350 µM (not active) each time. On to `CCOc1ccc(-c2nc(CCl)cs2)cc1`, for which the results for the EC50 in assay [4] and in [5] were > 112 µM (not active) and 40.7 µM (active), respectively. In the case of `COc1cccc(CNC(=O)c2cc(S(=O)(=O)N3CCOCC3)cn2C)c1`, the EC50 in [4] and in [5] was > 112 µM (not active) in each case. As to `Cc1ccc(-c2csc(NC(=O)C[n+]3cc(-c4ccc(C)cc4)n4c3CCC4)n2)cc1`, the IC50 in assay [3] was > 20 µM (inactive). In the case of `COc1ccc(NC(=O)Nc2ccc3c(c2)CC(=O)N([C@@H](C)CO)C[C@@H](C)[C@H](CN(C)CC2CCCCC2)O3)cc1`, in [1], the AC50 is 4.85 µM (active). Turning to `NC(=O)c1nsc(C(=O)N(c2cccc(F)c2)C(C(=O)NC2CCCC2)c2ccco2)c1N` (stereo not given), in [3], the IC50 is > 20 µM (inactive). Further, in assay [8], the EC50 was > 195 µM (not active). Regarding `COc1cc(/C=C/C(=O)Nc2ccc3nc4n(c(=O)c3c2)CCCC4)cc(OC)c1OC`, the IC50 with H9c2 was > 79 µM (inactive).

Take `Cc1cc(Br)cc(/C=N/c2ccc(N3CCOCC3)cc2)c1O`: the results for the IC50 (in [9]; with H9c2) were 14.6 µM (active) and 19.7 µM (active), respectively. `CC1CN(c2nn3c(=O)c4ccccc4nc3c3ccccc23)CC(C)O1` (stereo not given): the IC50 with H9c2 is > 79 µM (inactive). On to `CCOC(=O)c1cc(-c2ccccc2)nc2ccc(C)cc12` [NEOCINCHOPHEN], for which the IC50 in [3] was > 20 µM (inactive). Consider `O=C(Cn1[nH]c(=O)c2ccccc2c1=O)OCC(=O)N1CCCc2ccccc21`, for which the IC50 with H9c2 was > 79 µM (inactive). Take `N#Cc1ccc(-c2ccc([C@@H]3[C@@H]4CN(S(=O)(=O)Cc5ccccc5)C[C@H]3N4)cc2)cc1`: in [1], the AC50 is 6.48 µM (active).

Turning to `O=C(c1ccccc1)c1ccc2nc(N3CCN(C(=O)c4ccco4)CC3)c3nncn3c2c1`, in the assay on H9c2, the IC50 was > 79 µM (inactive). Same read-out and setting: next, `O=S(=O)(c1cccc(F)c1)N1CCN(c2nc(-c3cccnc3)nc3ccccc23)CC1`: > 79 µM (inactive).
